Measured values from ChEMBL document CHEMBL1201862, “PubChem BioAssay data set” (2004).
Each block holds one compound with its values, some of them ahead of it. Active and inactive are the calls of the source.

How the values were obtained:
[1] = molecular target: Voltage-dependent T-type calcium channel subunit alpha-1H (Homo sapiens, UniProt O95180); assay: Cav3.2 T-type channel inhibitors, cell-based, synthetic library set 1, calcium flux (AID 493022); format: functional
[2] = molecular target: Hexokinase (Trypanosoma brucei, UniProt Q38C41); assay: Confirmation assay for inhibitors of Trypanosoma brucei hexokinase 1-Analogue-first series. [Related pubchem assays (depositor defined):AID1430, AID1632, AID2516, AID2560, AID2579, AID2600, AID449725, AID492951]; format: functional
Chain of Hexokinase (Q38C41 whole entry): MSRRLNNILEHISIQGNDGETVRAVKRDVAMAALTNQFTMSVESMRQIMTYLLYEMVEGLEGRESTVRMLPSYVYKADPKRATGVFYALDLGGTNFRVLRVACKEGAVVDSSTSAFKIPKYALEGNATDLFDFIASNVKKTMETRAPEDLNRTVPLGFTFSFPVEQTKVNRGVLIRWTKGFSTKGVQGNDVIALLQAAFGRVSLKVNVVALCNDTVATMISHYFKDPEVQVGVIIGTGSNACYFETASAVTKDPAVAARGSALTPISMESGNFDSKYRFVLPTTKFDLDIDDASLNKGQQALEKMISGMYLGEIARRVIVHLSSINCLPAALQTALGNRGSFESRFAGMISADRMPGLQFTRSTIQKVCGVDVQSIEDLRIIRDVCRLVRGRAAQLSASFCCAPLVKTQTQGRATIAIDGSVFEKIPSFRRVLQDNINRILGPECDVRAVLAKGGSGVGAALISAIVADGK

[3] = molecular target: Glucose-6-phosphate 1-dehydrogenase (Homo sapiens, UniProt P11413); assay: human G6PD enzyme inhibitors, dose response, selectivity assay for P. falciparum G6PD inhibitor project, biochemical, fluorescence (AID 504792); format: functional
Chain of Glucose-6-phosphate 1-dehydrogenase (P11413 whole entry): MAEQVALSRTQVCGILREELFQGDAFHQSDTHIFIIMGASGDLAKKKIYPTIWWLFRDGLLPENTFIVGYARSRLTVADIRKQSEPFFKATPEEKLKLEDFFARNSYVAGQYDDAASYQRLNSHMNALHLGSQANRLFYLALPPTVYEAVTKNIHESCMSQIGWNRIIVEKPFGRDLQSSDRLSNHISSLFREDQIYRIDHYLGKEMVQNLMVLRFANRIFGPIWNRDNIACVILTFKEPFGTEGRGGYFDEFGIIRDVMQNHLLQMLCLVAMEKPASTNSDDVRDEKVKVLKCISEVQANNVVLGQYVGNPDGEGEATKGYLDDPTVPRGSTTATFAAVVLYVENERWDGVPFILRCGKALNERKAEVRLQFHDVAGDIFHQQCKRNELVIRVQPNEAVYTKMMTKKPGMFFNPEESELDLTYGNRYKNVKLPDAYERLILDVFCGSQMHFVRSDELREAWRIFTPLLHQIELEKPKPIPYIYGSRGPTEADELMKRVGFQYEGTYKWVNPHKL

[4] = molecular target: T1, Rac GTPase-activating protein 1 (Homo sapiens, UniProt Q9H0H5); assay: MgcRacGAP GTPase-activating activity inhibitors, confirmation, biochemical, ADP Hunter fluorescence, primary and confirmatory (AID 624330); format: functional
T1 sequence (Q9H0H5 whole entry): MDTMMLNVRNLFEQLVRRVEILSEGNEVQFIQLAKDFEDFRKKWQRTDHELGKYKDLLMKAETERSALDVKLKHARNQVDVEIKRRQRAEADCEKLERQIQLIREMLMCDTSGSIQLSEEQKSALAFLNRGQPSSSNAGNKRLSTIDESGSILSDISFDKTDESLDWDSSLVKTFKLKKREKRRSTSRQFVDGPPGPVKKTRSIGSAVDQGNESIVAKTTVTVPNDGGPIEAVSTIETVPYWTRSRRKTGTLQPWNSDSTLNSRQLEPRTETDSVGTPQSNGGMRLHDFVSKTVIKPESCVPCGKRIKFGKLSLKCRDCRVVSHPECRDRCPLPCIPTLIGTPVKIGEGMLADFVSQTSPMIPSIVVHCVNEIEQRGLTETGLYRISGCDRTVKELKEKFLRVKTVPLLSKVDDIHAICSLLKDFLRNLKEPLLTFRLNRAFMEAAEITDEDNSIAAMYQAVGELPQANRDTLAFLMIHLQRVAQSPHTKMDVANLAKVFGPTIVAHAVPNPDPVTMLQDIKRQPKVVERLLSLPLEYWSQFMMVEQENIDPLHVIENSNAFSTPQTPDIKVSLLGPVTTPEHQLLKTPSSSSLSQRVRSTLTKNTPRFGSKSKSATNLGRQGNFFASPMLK

[5] = molecular target: T2, Tyrosine-protein phosphatase non-receptor type 7 (Homo sapiens, UniProt P35236); assay: SAR analysis of chemical inhibitors of HePTP using a Fluorescent assay - Set 2. [Related pubchem assays (depositor defined):AID1059, AID1077, AID1661, AID2085, AID521]; format: functional
T2 sequence (P35236 whole entry): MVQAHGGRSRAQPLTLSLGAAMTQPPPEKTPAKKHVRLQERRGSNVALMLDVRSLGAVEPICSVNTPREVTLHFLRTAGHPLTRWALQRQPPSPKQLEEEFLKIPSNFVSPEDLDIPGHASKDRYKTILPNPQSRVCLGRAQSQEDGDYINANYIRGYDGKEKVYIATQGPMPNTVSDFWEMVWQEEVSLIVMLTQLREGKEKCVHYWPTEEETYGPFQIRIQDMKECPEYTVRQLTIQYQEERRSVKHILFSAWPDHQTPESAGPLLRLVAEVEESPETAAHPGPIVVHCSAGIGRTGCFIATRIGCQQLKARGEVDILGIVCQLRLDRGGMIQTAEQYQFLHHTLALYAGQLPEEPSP

[6] = molecular target: Dual specificity protein phosphatase 3 (Homo sapiens, UniProt P51452); assay: SAR VHR1 Fluorescent Assay for In Vitro dose response studies Set 2. [Related pubchem assays (depositor defined):AID1654, AID1661, AID1878]; format: functional
Chain of Dual specificity protein phosphatase 3 (P51452 whole entry): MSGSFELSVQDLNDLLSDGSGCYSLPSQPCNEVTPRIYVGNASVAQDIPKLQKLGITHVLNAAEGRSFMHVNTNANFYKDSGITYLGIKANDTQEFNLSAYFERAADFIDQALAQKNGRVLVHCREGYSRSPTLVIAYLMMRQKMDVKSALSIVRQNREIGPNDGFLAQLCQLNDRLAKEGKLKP

[7] = molecular target: T3, Mannose-6-phosphate isomerase (Homo sapiens, UniProt P34949); assay: PMI enzyme inhibitors, confirmation, biochemical, fluorescence intensity (AID 1535)
T3 sequence (P34949 whole entry): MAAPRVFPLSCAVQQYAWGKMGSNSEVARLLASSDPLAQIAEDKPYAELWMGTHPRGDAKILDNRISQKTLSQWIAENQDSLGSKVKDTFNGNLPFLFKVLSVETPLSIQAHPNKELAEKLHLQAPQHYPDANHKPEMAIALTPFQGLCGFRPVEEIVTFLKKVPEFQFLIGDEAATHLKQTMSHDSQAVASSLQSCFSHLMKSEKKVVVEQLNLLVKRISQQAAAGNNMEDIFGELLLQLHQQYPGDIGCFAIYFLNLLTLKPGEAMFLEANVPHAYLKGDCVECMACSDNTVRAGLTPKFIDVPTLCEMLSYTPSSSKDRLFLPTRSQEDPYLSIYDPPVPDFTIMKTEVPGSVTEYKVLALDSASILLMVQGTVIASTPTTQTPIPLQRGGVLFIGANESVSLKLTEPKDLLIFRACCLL

[8] = molecular target: Phosphoethanolamine/phosphocholine phosphatase (Homo sapiens, UniProt Q8TCT1); assay: SAR assay for compounds that inhibit PHOSPHO1. [Related pubchem assays (depositor defined):AID1545, AID1565, AID1574]
Chain of Phosphoethanolamine/phosphocholine phosphatase (Q8TCT1 whole entry): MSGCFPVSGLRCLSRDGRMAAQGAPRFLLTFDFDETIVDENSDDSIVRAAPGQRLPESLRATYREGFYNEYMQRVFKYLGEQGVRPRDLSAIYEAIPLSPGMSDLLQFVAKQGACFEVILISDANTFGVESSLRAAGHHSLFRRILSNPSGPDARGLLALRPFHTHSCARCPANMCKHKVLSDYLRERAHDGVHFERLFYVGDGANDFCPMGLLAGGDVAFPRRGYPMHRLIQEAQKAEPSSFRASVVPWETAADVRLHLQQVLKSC

[9] = molecular target: G-protein coupled receptor 55 (Homo sapiens, UniProt Q9Y2T6); assay: GPR55 agonists via beta-arrestin recruitment, primary screen, imaging, U2OS cells, beta-arrestin-GFP redistribution (AID 1961); format: functional
Chain of G-protein coupled receptor 55 (Q9Y2T6 whole entry): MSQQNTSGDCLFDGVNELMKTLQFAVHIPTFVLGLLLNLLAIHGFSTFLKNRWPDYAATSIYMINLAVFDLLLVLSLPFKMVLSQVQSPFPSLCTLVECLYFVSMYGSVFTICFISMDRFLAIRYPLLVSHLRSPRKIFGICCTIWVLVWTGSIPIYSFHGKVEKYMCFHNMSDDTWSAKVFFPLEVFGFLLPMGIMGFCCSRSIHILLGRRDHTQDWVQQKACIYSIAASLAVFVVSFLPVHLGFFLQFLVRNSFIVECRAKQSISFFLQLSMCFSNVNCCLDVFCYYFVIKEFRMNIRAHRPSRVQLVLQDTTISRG

Chain of Voltage-dependent T-type calcium channel subunit alpha-1H (O95180 whole entry): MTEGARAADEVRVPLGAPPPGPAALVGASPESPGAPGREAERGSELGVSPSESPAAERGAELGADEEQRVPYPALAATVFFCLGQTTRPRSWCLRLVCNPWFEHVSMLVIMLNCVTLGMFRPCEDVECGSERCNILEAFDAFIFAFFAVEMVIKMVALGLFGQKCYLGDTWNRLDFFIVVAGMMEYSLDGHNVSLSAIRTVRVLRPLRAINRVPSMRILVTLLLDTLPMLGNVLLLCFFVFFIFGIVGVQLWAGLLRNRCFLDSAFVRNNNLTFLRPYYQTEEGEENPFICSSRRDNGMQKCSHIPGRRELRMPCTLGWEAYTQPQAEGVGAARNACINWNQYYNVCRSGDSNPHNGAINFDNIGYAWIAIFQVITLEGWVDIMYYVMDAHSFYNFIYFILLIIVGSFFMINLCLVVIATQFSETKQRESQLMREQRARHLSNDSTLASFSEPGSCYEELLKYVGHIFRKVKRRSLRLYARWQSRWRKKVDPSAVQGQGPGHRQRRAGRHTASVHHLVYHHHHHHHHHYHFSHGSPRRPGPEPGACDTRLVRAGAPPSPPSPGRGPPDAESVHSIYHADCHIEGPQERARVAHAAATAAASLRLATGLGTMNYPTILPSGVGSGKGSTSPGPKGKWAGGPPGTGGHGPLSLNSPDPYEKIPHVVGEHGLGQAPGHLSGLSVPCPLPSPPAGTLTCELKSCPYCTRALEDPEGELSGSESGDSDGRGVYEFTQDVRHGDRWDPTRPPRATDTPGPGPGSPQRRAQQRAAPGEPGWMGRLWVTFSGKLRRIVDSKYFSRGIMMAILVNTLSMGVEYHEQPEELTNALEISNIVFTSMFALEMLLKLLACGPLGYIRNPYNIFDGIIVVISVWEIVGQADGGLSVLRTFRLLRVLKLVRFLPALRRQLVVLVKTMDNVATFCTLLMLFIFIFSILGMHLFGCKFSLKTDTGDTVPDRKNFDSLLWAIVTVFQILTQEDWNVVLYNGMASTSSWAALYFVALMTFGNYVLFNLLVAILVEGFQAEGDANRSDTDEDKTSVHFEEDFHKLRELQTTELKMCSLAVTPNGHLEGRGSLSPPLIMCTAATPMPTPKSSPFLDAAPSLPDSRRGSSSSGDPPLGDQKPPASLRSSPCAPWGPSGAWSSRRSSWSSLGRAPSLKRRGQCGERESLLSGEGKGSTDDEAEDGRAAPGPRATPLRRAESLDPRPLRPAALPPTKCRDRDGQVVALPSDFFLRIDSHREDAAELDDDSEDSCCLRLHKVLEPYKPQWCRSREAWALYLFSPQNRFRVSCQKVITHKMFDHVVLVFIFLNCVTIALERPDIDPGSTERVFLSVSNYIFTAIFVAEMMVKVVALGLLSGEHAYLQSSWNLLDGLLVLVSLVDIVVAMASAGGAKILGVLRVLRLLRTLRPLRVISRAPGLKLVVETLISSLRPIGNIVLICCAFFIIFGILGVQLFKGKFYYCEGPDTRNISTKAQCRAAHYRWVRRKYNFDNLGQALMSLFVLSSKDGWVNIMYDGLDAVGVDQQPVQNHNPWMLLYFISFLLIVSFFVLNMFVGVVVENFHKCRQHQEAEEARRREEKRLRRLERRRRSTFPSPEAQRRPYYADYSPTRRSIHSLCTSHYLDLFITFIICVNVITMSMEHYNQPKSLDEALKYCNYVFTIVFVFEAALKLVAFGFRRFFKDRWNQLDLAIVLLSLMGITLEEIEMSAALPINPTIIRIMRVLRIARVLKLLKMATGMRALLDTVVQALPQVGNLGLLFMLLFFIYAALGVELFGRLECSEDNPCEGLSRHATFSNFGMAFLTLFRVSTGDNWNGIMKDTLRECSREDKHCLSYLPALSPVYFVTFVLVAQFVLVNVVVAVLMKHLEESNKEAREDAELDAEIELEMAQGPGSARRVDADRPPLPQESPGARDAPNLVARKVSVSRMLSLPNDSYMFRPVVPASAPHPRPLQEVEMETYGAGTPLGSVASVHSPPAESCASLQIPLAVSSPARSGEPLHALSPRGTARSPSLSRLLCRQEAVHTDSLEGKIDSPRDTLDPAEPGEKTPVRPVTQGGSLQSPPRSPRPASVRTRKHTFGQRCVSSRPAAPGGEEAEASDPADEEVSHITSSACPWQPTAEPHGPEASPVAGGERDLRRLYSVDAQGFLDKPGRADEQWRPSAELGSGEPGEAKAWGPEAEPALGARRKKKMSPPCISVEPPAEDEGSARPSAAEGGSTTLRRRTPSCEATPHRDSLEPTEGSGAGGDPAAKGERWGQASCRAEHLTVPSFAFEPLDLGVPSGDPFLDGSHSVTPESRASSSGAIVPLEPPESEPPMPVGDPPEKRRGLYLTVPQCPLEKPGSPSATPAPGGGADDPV

Compound: O=C(Cn1sc2ccccc2c1=O)Nc1ccccc1
IC50 [2]: 6.69 µM (active) | IC50 [3]: 12.7 µM (active) | IC50 [4]: 73.1 µM (active)

Compound: COc1cc(C(=S)NCc2cccc(F)c2)ccc1O
IC50 [5]: 23.4 µM (active) | IC50 [6]: 32.8 µM (active)

Compound: O=c1c2c([N+](=O)[O-])cc([N+](=O)[O-])cc2sn1-c1ccc(OC(F)(F)Cl)cc1
IC50 [7]: 2.14 µM (active) | IC50 [8]: 0.233 µM (active)

Continued, values first:

EC50 [1]: 1.8 µM (active)
Compound: O=C(COc1ccccc1F)Nc1nnc(-c2ccc3ccccc3c2)o1

EC50 [9]: < 0.5 µM (active)
Compound: CCN(CC)c1ccc2nc3c4ccccc4c(=O)cc-3oc2c1 [NILE RED]
